Assay results reported in patent US6344457B1, “Amino acid derivatives inhibiting extracellular matrix metalloproteinase and TNF alpha release” (Chiesi Farmaceutici S.p.A., priority 1997, dated 2002).

Columns and labels:
[1] = biological target: 92 kDa gelatinase of human origin (Homo sapiens, UniProt P14780); test: Activity on gelatinase, radiomarked gelatin; type: biochemical; settings: test performed with radiomarked gelatin; read-out: C150 (nM) gelatinase 92 kDa*
Protocol: The anti-gelatinase activity of the compounds according to the invention also was determined on 92 kDa or 72 kDa gelatinase of human origin, in accordance with the operating mode described by Harris, E. D., Krane, S. M.; (Biochem. Biophys. Acta, 258, 566-576, 1972).
(§1) The gelatinase was incubated at 37° C. for 16 hours with radiomarked gelatin, and its activity was determined by the release of the soluble peptides produced by the enzymatic breakdown of the gelatin. The inhibiting concentration C150 for each compound was determined by measurement of the activity of the enzyme in the presence of the inhibitor at a concentration ranging between 10^−7 and 10^−12 M (the inhibitor is dissolved in the same manner as for collagenase).

[2] = biological target: T1, 72 kDa gelatinase of human origin (Homo sapiens, UniProt P08253); test: Activity on gelatinase, synthetic substrate; type: biochemical; settings: performed on synthetic substrate; read-out: C150 (nM) gelatinase 72 kDa**
T1 sequence (P08253 110-660): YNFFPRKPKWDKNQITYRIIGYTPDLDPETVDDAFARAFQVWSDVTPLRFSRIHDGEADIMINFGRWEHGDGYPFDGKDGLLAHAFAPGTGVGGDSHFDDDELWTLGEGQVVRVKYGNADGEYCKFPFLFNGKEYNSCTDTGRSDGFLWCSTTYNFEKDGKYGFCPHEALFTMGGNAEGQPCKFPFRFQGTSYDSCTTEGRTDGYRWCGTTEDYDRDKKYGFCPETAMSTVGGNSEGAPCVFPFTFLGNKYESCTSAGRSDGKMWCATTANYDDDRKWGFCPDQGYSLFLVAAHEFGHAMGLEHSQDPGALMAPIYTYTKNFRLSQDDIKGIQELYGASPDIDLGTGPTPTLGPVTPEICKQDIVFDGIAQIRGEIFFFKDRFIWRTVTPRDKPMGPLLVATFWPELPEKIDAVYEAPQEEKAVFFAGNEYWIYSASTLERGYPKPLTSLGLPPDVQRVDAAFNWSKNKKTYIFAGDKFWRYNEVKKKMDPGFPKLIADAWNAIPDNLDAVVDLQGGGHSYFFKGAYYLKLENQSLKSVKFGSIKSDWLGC
Protocol: The anti-gelatinase activity of the compounds according to the invention was determined on 72 kDa gelatinase of human origin, in accordance with the operating mode described by Knight, C. G., Willenbrock, F., Murphy, G. (FEBS Letters, 296 (3), 263-266, 1992).
The gelatinase was incubated at 37° C. for 10 minutes, and its activity was determined by the increase in fluorescence of the product of Mca-Pro-Leu breakdown of the Mca-Pro-Leu-Gly-Leu-Dpa-Ala-Arg-NH2 synthetic substrate.
The inhibiting concentration C150 for each compound was determined by measurement of the activity of the enzyme in the presence of the inhibitor at a concentration ranging between 10^−7 and 10^−12 M (the inhibitor is dissolved at a concentration of 10^−2 M in DMSO, then diluted successively by tenths in DMSO to 10^−4 M, then in the buffer: Tris, HCl 50 mM+0.05% Brij 35; CaCl2 10 mM; NaCl 0.15 M).

[3] = system: release of TNF from the peritoneal macrophages of mice stimulated by LPS; test: Inhibition of the production of TNF in vitro; type: cell-based; settings: Peritoneal macrophage; mouse peritoneal macrophages, LPS 100 ng/ml; read-out: C150 (μM) TNF
Protocol: The capacity of the compounds according to this invention to inhibit the release of TNF was determined from the peritoneal macrophages of mice stimulated by LPS (Lang, F., Robert, […], Petit, J. Y., J. Pharmacol. Exp. Ther., 275, 171-176, 1995). After an adhesion phase of 2 hours, the cells were treated for 1 hour with the compound to be tested at concentrations ranging between 10^-6 to 10^-9 M (the inhibitor is dissolved in DMSO at 10^-2 M, then at 5.10^-3 M in RPMI 1640 with 5% SVF, then diluted successively by tenths in the same medium), then stimulated by the addition of LPS (100 ng/ml in final concentration). Three hours later, the biological activity of the TNF in the supernatants was determined by a cytotoxicity test using the murine stock L929 in accordance with the operating procedure described by Band, G., Lin, […]., Evans, C. H. (Bioch. Biophys. Acta, 1134, 309-318, 1982). The pg/ml concentration of the TNF of the samples was determined from a murine αTNF standard curve, thus making it possible to define the inhibiting concentration […] of the compounds studied.

[4] = biological target: T2, collagenase of the human monocytic stock U937 (Homo sapiens, UniProt P03956); test: Activity on collagenase; type: biochemical; settings: radiomarked collagen, 27° C., 16 hours; read-out: C150 (nM) collagenase
T2 construct: the collagenase of the human monocytic stock U937; endogenous in cells; host or cells: U937 human monocytic cell line
T2 sequence (P03956 100-469): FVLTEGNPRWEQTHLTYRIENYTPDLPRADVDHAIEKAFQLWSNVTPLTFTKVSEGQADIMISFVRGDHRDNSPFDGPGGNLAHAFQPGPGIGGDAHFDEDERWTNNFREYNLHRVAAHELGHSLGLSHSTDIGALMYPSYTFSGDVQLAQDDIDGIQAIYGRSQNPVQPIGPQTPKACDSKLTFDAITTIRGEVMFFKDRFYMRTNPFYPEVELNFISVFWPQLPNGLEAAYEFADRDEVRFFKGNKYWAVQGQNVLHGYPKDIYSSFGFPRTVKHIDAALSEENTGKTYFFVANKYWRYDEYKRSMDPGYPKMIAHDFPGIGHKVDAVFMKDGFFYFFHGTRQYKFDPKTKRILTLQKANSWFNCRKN
Protocol: The collagenase was incubated at 27° C. for 16 hours with radiomarked collagen, and its activity was determined by the release of soluble peptides produced by the enzymatic breakdown of the collagen. The inhibiting concentration C150 for each compound was determined by measurement of the activity of the enzyme in the presence of the inhibitor at a concentration ranging between 10^−7 and 10^−12 M (the inhibitor is dissolved at a concentration of 10^−2 M in DMSO, then diluted successively by tenths in the buffer: Tris, HCl 150 mM, pH 7.5; NaCl 0.15 M; CaCl2 10 mM).

[5] = biological target: stromelysine of human origin (Homo sapiens, UniProt P08254); test: Activity on stromelysine; type: biochemical; settings: radiomarked transferrin, 37° C., 16 hours; read-out: C150 (nM) stromelysine
stromelysine of human origin, sequence (P08254 100-477): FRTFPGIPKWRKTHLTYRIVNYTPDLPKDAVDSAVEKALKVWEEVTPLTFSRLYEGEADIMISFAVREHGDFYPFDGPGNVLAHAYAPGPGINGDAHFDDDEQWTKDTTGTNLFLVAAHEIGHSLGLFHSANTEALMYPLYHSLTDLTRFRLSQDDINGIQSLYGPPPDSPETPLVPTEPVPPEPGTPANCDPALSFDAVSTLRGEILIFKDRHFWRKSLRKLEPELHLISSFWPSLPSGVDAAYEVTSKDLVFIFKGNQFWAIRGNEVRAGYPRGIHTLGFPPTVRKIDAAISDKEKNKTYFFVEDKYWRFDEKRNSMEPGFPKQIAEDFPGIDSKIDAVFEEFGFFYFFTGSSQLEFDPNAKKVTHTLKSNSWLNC
Protocol: as §1, with “stromelysine” for “gelatinase”, “transferrin,” for “gelatin,”, “transferrin.” for “gelatin.”

[6] = system: metalloproteinase (MMP); settings: Bioorg. Med. Chem. Letters (1996), 6, 1719-1724; cited from earlier work

92 kDa gelatinase of human origin, sequence (P14780 94-707): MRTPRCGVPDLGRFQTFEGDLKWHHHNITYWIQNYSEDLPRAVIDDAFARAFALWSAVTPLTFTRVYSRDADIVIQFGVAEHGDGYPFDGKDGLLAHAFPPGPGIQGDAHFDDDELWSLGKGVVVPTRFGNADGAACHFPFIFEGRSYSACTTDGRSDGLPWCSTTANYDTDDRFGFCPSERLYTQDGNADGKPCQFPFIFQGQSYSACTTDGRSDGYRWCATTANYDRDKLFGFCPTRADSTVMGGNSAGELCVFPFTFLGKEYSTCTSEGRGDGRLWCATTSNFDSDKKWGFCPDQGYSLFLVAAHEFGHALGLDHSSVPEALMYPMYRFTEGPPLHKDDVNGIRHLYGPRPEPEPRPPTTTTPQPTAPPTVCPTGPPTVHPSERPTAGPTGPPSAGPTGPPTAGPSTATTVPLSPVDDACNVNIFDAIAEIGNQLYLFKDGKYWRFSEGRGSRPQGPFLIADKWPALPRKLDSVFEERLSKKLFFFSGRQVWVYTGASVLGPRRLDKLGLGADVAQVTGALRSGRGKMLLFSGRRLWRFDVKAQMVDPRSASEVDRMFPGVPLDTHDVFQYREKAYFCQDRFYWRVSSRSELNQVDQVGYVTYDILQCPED

SMILES	IC50 [1] [nM]	IC50 [2] [nM]	IC50 [3] [µM]	melting point	IC50 [4] [nM]	IC50 [5] [nM]	activity on gem disubstitution, versus compound VII [6]
CSCCNC(=O)[C@H](Cc1ccc(Cl)cc1)NC(=O)[C@](O)(CC(C)C)[C@H](C)C(=O)NO [Example 13, N-2(S)[-1-(S)(hydroxycarbamoyl)-1 ethyl]-2(S) hydroxy-4-methylpentanoylL-4-chlorophenylalanine N-(2 methylthio-1-ethyl) amide]	0.005	1.6	0.15		10	20	
CNC(=O)[C@H](Cc1ccc(I)cc1)NC(=O)[C@](O)(CC(C)C)[C@H](C)C(=O)NO [Example 14, N-2(S)[1(S) hydroxycarbamoyl-1 ethyl]-2(S) hydroxy 4 methyl pentanoyl L-4-iodophenylalanine N-methylamide]	0.2	0.3	0.4		2	12	
CNC(=O)[C@H](Cc1ccc(N)cc1)NC(=O)[C@](O)(CC(C)C)[C@H](C)C(=O)NO [Example 9, N-2(S)[1(S) (hydroxycarbamoyl) 1(S)ethyl]2-(S) hydroxy-4-methyl pentanoyl L-4-amino phenylalanine N-methylamide]	2	1.6	2.2		11	50	
CNC(=O)[C@H](Cc1ccc(OC)cc1)NC(=O)C1(CC(=O)NO)CCc2ccccc21 (stereo partly drawn) [IX]							significant loss of activity
CNC(=O)[C@H](Cc1ccc(OC)cc1)NC(=O)C(C)(CC(=O)NO)c1ccccc1 (stereo partly drawn) [VIII]							significant loss of activity
CNC(=O)[C@H](Cc1ccc(Br)cc1)NC(=O)[C@](O)(CC(C)C)[C@H](C)C(=O)NO [Example 11, N-2(S)[-1(S)(hydroxycarbamoyl)-1 ethyl]-2(S) hydroxy 4-methyl pentanoyl L-4-bromophenylalanine N-methylamide]	2	2	0.61	214 °C (dec.)	10	37	
CNC(=O)[C@H](Cc1ccc(Cl)cc1)NC(=O)[C@](O)(CC(C)C)[C@H](O)C(=O)NO [Example 3, N-2 (S) [(S) hydroxy (S) hydroxycarbamoylmethyl] 2(S) hydroxy 4-methyl pentanoyl L-4-chlorophenylalanine N-methylamide]	54	6.7	3.2		50	> 1000	
CNC(=O)[C@H](Cc1ccccc1)NC(=O)[C@](O)(CC(C)C)[C@H](C)C(=O)NO [Example 4, N-2(S)[1(S)(hydroxycarbamoyl)ethyl] 2(S) hydroxy4-methyl pentanoyl L-phenyl alanine N-methylamide]	10	1.6		174.2 °C (dec.)	36	29	

Now from value to compound, other results behind:

IC50 [1] [nM]	IC50 [2] [nM]	IC50 [3] [µM]	melting point	IC50 [4] [nM]	IC50 [5] [nM]	SMILES	activity on gem disubstitution, versus compound VII [6]
2	1.2	0.6	186.5 °C	14		CNC(=O)[C@H](Cc1ccc(F)cc1)NC(=O)[C@](O)(CC(C)C)[C@H](C)C(=O)NO [Example 16, N-2(S)[1(S)hydroxycarbamoyl-1 ethyl]-2(S) hydroxy 4-methylpentanoyl L-4-fluorophenylalanine N-methylamide]	
0.002	0.4	≤ 0.14	216 °C (dec.)	2	6	CNC(=O)[C@H](Cc1ccc(Cl)c(Cl)c1)NC(=O)[C@](O)(CC(C)C)[C@H](C)C(=O)NO [Example 18, N-2(S)[1(S)hydroxycarbamoyl-1 ethyl]-2 (S) hydroxy 4-methylpentanoyl L-3,4-dichlorophenylalanine N-methylamide]	
0.001	1.3	4.5		32	38	CSCCNC(=O)[C@H](Cc1ccc(I)cc1)NC(=O)[C@](O)(CC(C)C)[C@H](C)C(=O)NO [Example 15, N-2(S)[1(S) hydroxycarbamoyl-1 ethyl]2(S) hydroxy 4-methylpentanoyl L-4-iodophenylalanine N-(2 methylthio-1-ethyl) amide]	
80	13		199 °C (dec.)	26		CNC(=O)[C@H](Cc1ccc(OC)cc1)NC(=O)[C@](O)(CC(C)C)[C@H](O)C(=O)NO [Example 29]	
7		3.6	194.1 °C	11	> 1000	CNC(=O)[C@H](Cc1ccc(Cl)c(Cl)c1)NC(=O)[C@](O)(CC(C)C)[C@H](O)C(=O)NO [Example 30]	
7	0.6	0.14		5	10	CNC(=O)[C@H](Cc1ccc(OC)cc1)NC(=O)[C@H](CC(C)C)[C@H](C)C(=O)NO [drawing 111, reference compound]	
